According to PubChem BioAssay AID330 (DTP/NCI, 2004):
Values joined by “and” are separate entries in the source; they are usually repeats but may differ in a detail not shown here. Equal entries are not always repeated. Inconclusive results and toxic doses are left out. How the source made its calls: active means survival T/C of 150% or more; inactive means T/C below 125% in these data.

System: P388 leukemia ip, CD2F1 mice, survival T/C
Test: NCI In Vivo Anticancer Drug Screen. Data for tumor model P388 Leukemia (intraperitoneal) in CD2F1 (CDF1) mice
Details: endpoint: median survival time, higher = longer survival
Outline: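 Mice carrying the transplanted tumor received test compound or vehicle. Survival was recorded in each group, and the value is the treated-group measurement divided by that of the vehicle-treated control group.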

[1] = dose: 50.0 mg/kg/injection, schedule: Q01DX009 (ip), vehicle: saline with Tween-80
[2] = dose: 50.0 mg/kg/injection, schedule: Q01DX009 (ip), vehicle: saline
[3] = dose: 100.0 mg/kg/injection, schedule: Q01DX009 (ip), vehicle: saline with Tween-80
[4] = dose: 100.0 mg/kg/injection, schedule: Q01DX009 (ip), vehicle: saline
[5] = dose: 200.0 mg/kg/injection, schedule: Q01DX009 (ip), vehicle: saline
[6] = dose: 6.25 mg/kg/injection, schedule: Q01DX009 (ip), vehicle: saline
[7] = dose: 12.5 mg/kg/injection, schedule: Q01DX009 (ip), vehicle: saline
[8] = dose: 100.0 mg/kg/injection, schedule: Q04DX002 (ip), vehicle: saline with Tween-80
[9] = dose: 200.0 mg/kg/injection, schedule: Q04DX002 (ip), vehicle: saline with Tween-80
[10] = dose: 400.0 mg/kg/injection, schedule: Q04DX002 (ip), vehicle: saline with Tween-80
[11] = dose: 100.0 mg/kg/injection, schedule: Q01DX001 (ip), vehicle: saline with Tween-80
[12] = dose: 200.0 mg/kg/injection, schedule: Q01DX001 (ip), vehicle: saline with Tween-80
[13] = dose: 3.12 mg/kg/injection, schedule: Q01DX009 (ip), vehicle: saline
[14] = dose: 200.0 mg/kg/injection, schedule: Q01DX009 (ip), vehicle: saline with Tween-80
[15] = dose: 50.0 mg/kg/injection, schedule: Q01DX009 (ip), vehicle: Klucel (hydroxypropylcellulose) (HPC)
[16] = dose: 100.0 mg/kg/injection, schedule: Q01DX009 (ip), vehicle: Klucel (hydroxypropylcellulose) (HPC)

Measured: T/C

CSc1nc(NC2OC(CO)C(O)C(O)C2O)c(C=O)c(=O)n1C (stereo not given)
inactive: dose: 60.0 mg/kg/injection, schedule: Q01DX005 (ip), vehicle: saline with Tween-80 100 % of control | dose: 120.0 mg/kg/injection, schedule: Q01DX005 (ip), vehicle: saline with Tween-80 92 % of control | dose: 240.0 mg/kg/injection, schedule: Q01DX005 (ip), vehicle: saline with Tween-80 91 % of control

O=C/C=C/c1ccc([N+](=O)[O-])cc1Cl
inactive: dose: 25.0 mg/kg/injection, schedule: Q01DX009 (ip), vehicle: saline with Tween-80 104 % of control | [1] 106 % of control | [2] 115 % of control | [3] 106 % of control | [4] 124 % of control | [5] 124 % of control

CCC/C(=N\NC(N)=NC)c1ccc(Cl)cc1
inactive: dose: 25.0 mg/kg/injection, schedule: Q04DX002 (ip), vehicle: saline 102 % of control | dose: 50.0 mg/kg/injection, schedule: Q04DX002 (ip), vehicle: saline 93 % of control

C[N+]12CCCCC1CC2 (stereo not given)
inactive: [6] 89 % of control | [7] 88 % of control | dose: 25.0 mg/kg/injection, schedule: Q01DX009 (ip), vehicle: saline 91 % of control

O=C1C=CC(O)C2C1CC13SSC4(CC5C(=O)C=CC(O)C5N4C1=O)C(=O)N23 (stereo not given)
inactive: dose: 4.0 mg/kg/injection, schedule: Q01DX009 (ip), vehicle: Klucel (hydroxypropylcellulose) (HPC) 107 % of control | dose: 8.0 mg/kg/injection, schedule: Q01DX009 (ip), vehicle: Klucel (hydroxypropylcellulose) (HPC) 102 % of control

CCN1C(N)=NS(=O)(=O)c2ccccc21
inactive: [8] 104 % of control | [9] 104 % of control | [10] 106 % of control

CC1=CC(C)=Nc2ccccc2N1
inactive: [2] 103 % of control | [4] 99 % of control and 101 % of control | [5] 94 % of control

Cc1ccccc1OC(=O)Nc1ccc(C(=O)O)c(O)c1
inactive: [11] 95 % of control | [12] 109 % of control

Cc1ccc(C2=Nc3ccccc3SC(c3cccc([N+](=O)[O-])c3)C2)cc1 (stereo not given)
inactive: [13] 90 % of control | [6] 97 % of control | [7] 88 % of control | [2] 86 % of control

CCCCCCCCCCCCCCP(I)(N(C)C)(N(C)C)N(C)C
inactive: dose: 0.1 mg/kg/injection, schedule: Q01DX009 (ip), vehicle: saline with Tween-80 106 % of control | dose: 0.19 mg/kg/injection, schedule: Q01DX009 (ip), vehicle: saline with Tween-80 113 % of control | dose: 0.38 mg/kg/injection, schedule: Q01DX009 (ip), vehicle: saline with Tween-80 117 % of control

COc1ccccc1/C=N/NC(=O)Cc1ccccc1
inactive: [1] 101 % of control | [3] 91 % of control | [14] 93 % of control

CC(C)(C)c1ccc(OS(=O)(=O)c2cccc([N+](=O)[O-])c2)cc1
inactive: [3] 95 % of control | [14] 100 % of control | dose: 400.0 mg/kg/injection, schedule: Q01DX009 (ip), vehicle: saline with Tween-80 100 % of control

CC(C)(C)C#CP(C#CC(C)(C)C)C#CC(C)(C)C
inactive: dose: 12.5 mg/kg/injection, schedule: Q04DX003 (ip), vehicle: Klucel (hydroxypropylcellulose) (HPC) 108 % of control | dose: 25.0 mg/kg/injection, schedule: Q04DX003 (ip), vehicle: Klucel (hydroxypropylcellulose) (HPC) 106 % of control | dose: 50.0 mg/kg/injection, schedule: Q04DX003 (ip), vehicle: Klucel (hydroxypropylcellulose) (HPC) 111 % of control

C[CH2][Sn]([CH2]C)([N]=C=S)[N]=C=S
inactive: [13] 99 % of control and 100 % of control | [6] 86 % of control and 93 % of control

CC(C)=CCCC1(C)C=Cc2c(ccc3c(C)noc23)O1 (stereo not given)
inactive: dose: 50.0 mg/kg/injection, schedule: Q01DX005 (ip), vehicle: saline with Tween-80 100 % of control | dose: 100.0 mg/kg/injection, schedule: Q01DX005 (ip), vehicle: saline with Tween-80 89 % of control | dose: 200.0 mg/kg/injection, schedule: Q01DX005 (ip), vehicle: saline with Tween-80 110 % of control

Cc1ccc(S(=O)(=O)N/N=C/c2c(Cl)n(-c3ccccc3)c3ccccc23)cc1
inactive: [11] 100 % of control | [12] 99 % of control | dose: 400.0 mg/kg/injection, schedule: Q01DX001 (ip), vehicle: saline with Tween-80 97 % of control

CC(=O)OCc1cnccc1Cl
inactive: [8] 100 % of control | [9] 102 % of control | [10] 94 % of control

COc1c2ccoc2nc2c(OC)c3c(cc12)OCO3
inactive: dose: 6.25 mg/kg/injection, schedule: Q01DX009 (ip), vehicle: Klucel (hydroxypropylcellulose) (HPC) 105 % of control | dose: 12.5 mg/kg/injection, schedule: Q01DX009 (ip), vehicle: Klucel (hydroxypropylcellulose) (HPC) 99 % of control | dose: 25.0 mg/kg/injection, schedule: Q01DX009 (ip), vehicle: Klucel (hydroxypropylcellulose) (HPC) 94 % of control | [15] 94 % of control

CN(C)Cc1cc(O)c(CN(C)C)cc1O
inactive: dose: 3.13 mg/kg/injection, schedule: Q01DX009 (ip), vehicle: saline + Tween-80 + alcohol 100 % of control | dose: 6.25 mg/kg/injection, schedule: Q01DX009 (ip), vehicle: saline + Tween-80 + alcohol 101 % of control and 111 % of control | dose: 12.5 mg/kg/injection, schedule: Q01DX009 (ip), vehicle: other 123 % of control | dose: 12.5 mg/kg/injection, schedule: Q01DX009 (ip), vehicle: saline + Tween-80 + alcohol 102 % of control and 112 % of control | dose: 25.0 mg/kg/injection, schedule: Q01DX009 (ip), vehicle: other 105 % of control | dose: 25.0 mg/kg/injection, schedule: Q01DX009 (ip), vehicle: saline + Tween-80 + alcohol 107 % of control and 109 % of control | dose: 50.0 mg/kg/injection, schedule: Q01DX009 (ip), vehicle: other 105 % of control | dose: 100.0 mg/kg/injection, schedule: Q01DX009 (ip), vehicle: other 119 % of control

COc1ccc(C2CC(=O)C=C3c4ccc(OC)cc4CCC32)cc1 (stereo not given)
inactive: [15] 91 % of control | [16] 91 % of control

CC(C)(C)C(=O)C1C(=O)c2ccccc2C1=O
inactive: dose: 1.56 mg/kg/injection, schedule: Q04DX003 (ip), vehicle: Klucel (hydroxypropylcellulose) (HPC) 98 % of control | dose: 3.12 mg/kg/injection, schedule: Q04DX003 (ip), vehicle: Klucel (hydroxypropylcellulose) (HPC) 89 % of control

Cc1ccc(S(=O)(=O)C2(Sc3ccccc3)SC2C(=O)c2ccccc2)cc1 (stereo not given)
inactive: [15] 99 % of control | [16] 105 % of control | dose: 200.0 mg/kg/injection, schedule: Q01DX009 (ip), vehicle: Klucel (hydroxypropylcellulose) (HPC) 111 % of control

COC(=O)C1OC(SC(=N)N)C(OC(C)=O)C(OC(C)=O)C1OC(C)=O (stereo not given)
inactive: dose: 12.5 mg/kg/injection, schedule: Q01DX009 (ip), vehicle: water 101 % of control | dose: 25.0 mg/kg/injection, schedule: Q01DX009 (ip), vehicle: water 109 % of control | dose: 50.0 mg/kg/injection, schedule: Q01DX009 (ip), vehicle: water 107 % of control and 117 % of control

O=c1cc2cccccc-2o1
inactive: dose: 100.0 mg/kg/injection, schedule: Q01DX001 (ip), vehicle: Klucel (hydroxypropylcellulose) (HPC) 101 % of control | dose: 200.0 mg/kg/injection, schedule: Q01DX001 (ip), vehicle: Klucel (hydroxypropylcellulose) (HPC) 103 % of control
